The record followed here is US20220111044A1, “WHOLE CELL TUMOR VACCINES AND METHODS OF USE THEROF” (CHILDREN'S NATIONAL MEDICAL CENTER, priority 2019, published 2022).

Assay [1] concerns PD-L1 on Neuro2a and AgN2a cells. In words: PD-L1 surface expression after IFNγ stimulation, mouse neuroblastoma cell lines (flow cytometry). Format: cell-based. An excerpt:
(§1) The expression of PD-L1 on human neuroblastoma cell lines SY5Y and SK-N-SH (non-NMYC amplified) had similar changes with exposure to IFNγ. […] Representative tumors were dissected from naïve mice (I, V, IX, and XIII) and from mice after receipt of Id2kd vaccine (II, VI, X, and XIV), Id2kd plus PD-L1 antibody (III, VII, XI, and XV), and Id2kd plus CTLA-4 antibody (IV, VIII, XII, and XVI). Hematoxylin and eosin (H&E) staining (I±VIII) and immunofluorescence double staining (IX-XVI) for CD3 and PD-L1 were performed. The nuclei were stained with 4′,6-diamidino-2-phenylindole (DAPI). Representative micrographs from each cohort are shown. Areas of necrotic tissues are marked with black broken lines and coincide with areas of inflammatory cell infiltrates. […]
(§2) FIGS. 5A and 5B show PD-L1 is expressed at 3.7-fold-lower levels on aggressive mouse neuroblastoma cell line AgN2a, as evidenced by flow cytometry (FIG. 5A) and real-time quantitative PCR (RT-qPCR) (p<0.005, Student t test; FIG. 5B). […]
Cells from mouse tumor digests and mouse splenocytes were stained with the fluorescently conjugated antibodies described above. […] Data were analyzed using the FlowJo program (Treestar, Ashland, Oreg.). […]
(§3) A possible explanation may be the differential constitutive expression of PD-L1 by tumor cells. […] The response of PD-L1 expression to IFNγ stimulation was also determined.

For assay [2], the system named is PD-L1 on SK-N-SH, SH-SY5Y and IMR-32 cells. The experiment in a line: PD-L1 expression after IFNγ stimulation, human neuroblastoma cell lines. Format: cell-based.
Excerpt: as §1, with “infiltrates. Panel 1 (I-IV) and panel 3 (IX-XII) are 40× and 100× original magnification, respectively.” for “infiltrates.”
as §2, §3

The next assay relates to ApoE. In words: IFNγ ELISA of splenocytes cocultured with Myc-suppressed irradiated B16 cells with ApoE agonist or anti-ApoE antibody. Format: cell-based, mouse. As for the experimental part:
IFNγ was measured at 48 hours of culture (pg/ml). S: splenocytes; NS: naïve splenocytes; VS: vaccinated splenocytes; S1S: splenocytes dissected from survivor mouse; Treated: B16 cells expose to 0.25 μM BET/0.25 μM JQ1 for 4 days.
IFNγ production was quantified by ELISA at 48 hours.

In the case of IFNγ, the PD-L1 up-regulation entry in assay [1] (AgN2a, highest concentrations tested) was “failed to up-regulate PD-L1”; in assay [2] (MYCN-amplified IMR-32, highest concentrations tested), “failed to up-regulate PD-L1”. Also, the PD-L1 surface expression result in assay [1] (Neuro2a, 24 hours of stimulation) is “increase in a dose-dependent manner”. The PD-L1 expression result in assay [2] (SK-N-SH and SH-SY5Y (non-MYCN amplified), increasing doses) is “rises markedly”.
Consider “LRVRLASHLRKLRKRLL (SEQ ID NO: 1) (COG133) [ApoE agonist peptide fragment]”, for which the “IFNγ production, fold reduction” value in the assay on ApoE (0.3, 3 and 9 μM, 48 hours, ELISA, FIG. 10A) is 6 fold reduction. The “IFNγ secretion from splenocytes” value in the assay with ApoE (48 hours of culture, FIGS. 10A and 10B) is reported as “significantly suppressed in a dose dependent manner”. The “TNFα and Rantes production” value in the assay on ApoE (co-culture with vaccinated splenocytes) is reported as “repressed”.
